Experiments:
[1] = test system: CK enzyme expressed in the tumor; assay: in vivo imaging of creatine kinase expression by monitoring conversion of PCr to Cr through CEST; settings: 60 minutes following tail vein injection of PCr, versus base line CEST map, FIG. 3
Description: (§1) In certain embodiments, the radio frequency (RF) pulse can be provided at different frequency offsets. In certain embodiments, to detect the conversion of phosphocreatine to creatine, an RF pulse was applied at a frequency offset of about 1.8 ppm for a period of about 1 to about 3 seconds.
“b” is the base line CEST map from the same slice. “c” is a CEST map of the same slice at 60 minutes following tail vein injection of PCr.

[2] = test system: creatine kinase (CK) expression in cancer cells; assay: CEST imaging of cancer cells cultured with PCr; format: cell-based; settings: cancer cell line cultured with PCr for 1 hour; FIG. 2
Text: as §1
The creatine kinase (CK) expression in cancer cells cleaves the PCr into creatine (Cr), and can be responsible for the increase in CEST contrast from creatine amine protons.

In the case of `CN(CC(=O)O)C(=N)NP(=O)(O)O` [PCr, phosphocreatine], the “increase in CEST contrast” value [1] is reported as “about 11%” and the “elevation of the CEST contrast over cancer cells without PCr” value [2] is reported as “about 16%”.
